Experimental data as given in the METLIN SMRT retention time set (Domingo-Almenara et al. 2019).

Experiment: gradient 5% acetonitrile 3 min, to 50% in 2 min, to 85% in 15 min, held 3 min, 100 µL/min
Conditions: column: Zorbax Extend-C18 2.1 x 50 mm; eluents: water / acetonitrile, 0.1% formic acid
How it was run: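 Retention times come from adduct peaks that were picked computationally and then checked by hand. The standards, pure and pooled in mixtures of ~100 molecules, were run on a Zorbax Extend-C18 column (2.1 × 50 mm, 1.8 μm) at 100 μL/min with water and acetonitrile, each with 0.1% formic acid. Detection was by quadrupole time-of-flight mass spectrometry in positive and negative ionization mode, with a dead volume of 40 μL and a dwell volume of 900 μL.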

Row | Structure (SMILES) | RP-LC retention time [s]
1 | CN1CCN(CCCNc2nnc(-c3nc(-c4ccc(F)cc4)no3)c3ccccc23)CC1 | 575
2 | CCCc1nnc(-c2cccnc2N2CCN(C(=O)c3ccoc3)CC2)o1 | 728
3 | Cc1ccc(S(=O)(=O)N2CCC(C)(C(=O)NCc3ccccc3C)CC2)cc1C | 1030
4 | CCn1cc(CC(=O)NC2CCCCCC2)c2cccnc21 | 768
5 | CC1(C(=O)NCc2ccc(F)cc2)CCCN(C(=O)NC2CCCCC2)C1 (stereo unspecified) | 895
6 | CCC(=O)N1CCc2ccccc2C1C(=O)NCc1ccccc1Br (stereo unspecified) | 884
7 | O=C1/C(=C/c2ccsc2)CC/C1=C\c1cccs1 | 1280
8 | CC(NC(=O)C(=O)c1c[nH]c2ccccc12)c1ccccc1 (stereo unspecified) | 924
9 | CCn1cc(-c2nc(C)c(C(=O)Nc3ccccc3OC)s2)c2cccnc21 | 1120
10 | CCCCOC(=O)c1ccc(NC(=O)c2cnc3scc(C)n3c2=O)cc1 | 1050
11 | Cc1cccc(C2(O)C(=O)N(CC(=O)NCc3ccco3)c3ccccc32)c1 (stereo unspecified) | 630
12 | Cn1nnc2cc(-c3noc(CNC(=O)c4ccccc4)n3)ccc21 | 708
13 | Cc1cc(Cl)ccc1NC(=O)N(C)CC1CCOC1 (stereo unspecified) | 756
14 | O=C(NCc1csc(-c2cccs2)n1)C1CCN(C(=O)Cc2ccc(F)cc2)CC1 | 778
15 | C=Cc1ccc(Cn2nc(-c3nc(-c4ccc(F)cc4)no3)ccc2=O)cc1 | 1200
16 | CCN1C(=O)COc2ccc(-c3noc(-c4cccc(F)c4)n3)cc21 | 1170
17 | CC(C)C(=O)Nc1cnc(-c2ccc(F)cc2)nc1 | 861
18 | CCCCN(CC)CCNC(=O)c1cn2c3c(ccc(Cl)c3c1=O)OCC2 | 758
19 | COc1ccc(OC)c(S(=O)(=O)N2CCCC(C(=O)Nc3cccc(C)c3)C2)c1 (stereo unspecified) | 952
20 | Cc1ccc(CN2CCN(CC(=O)Nc3ccc(C)cn3)C(=O)C2=O)cc1 | 664
21 | CN[C@@H]1C[C@@H](c2ccc(Cl)c(Cl)c2)c2ccccc21 | 824
22 | Cc1nn(-c2ccc(C(=O)NCc3cccs3)cc2)c2c1C(=O)CCC2 | 749

Row | Structure (SMILES) | RP-LC retention time [s]
23 | CCc1ccc2nc(Nc3ncc4c(n3)CC(c3ccc(OC)cc3)CC4=O)nc(C)c2c1 (stereo unspecified) | 820
24 | COc1ccc(CCNC(=O)CSc2nccn2Cc2ccco2)cc1OC | 574
25 | CC(C)NC(=O)C1CCCN(c2nc3ncn(CC(=O)Nc4ccccc4)c(=O)c3s2)C1 (stereo unspecified) | 686
26 | CCOc1ccc(S(=O)(=O)N2CCCC(C(=O)Nc3cc(C)ccc3OC)C2)cc1 (stereo unspecified) | 1090
27 | O=C(Cn1c(=O)c(=O)n(Cc2ccccc2)c2ncccc21)NCc1ccco1 | 786
28 | Cc1ccc(CNc2ccc3nnc(C4CCC4)n3n2)o1 | 883
29 | CN1C(=O)c2cc(C(=O)NCc3cccc(F)c3)nn2CC1(C)C(=O)NCc1ccc(F)cc1 (stereo unspecified) | 760
30 | CN1CCC(NC(=O)c2ccc(-c3nnc4ccc(NC(=O)C5CCC5)cn34)cc2)CC1 | 606
31 | COc1ccc(-c2cn3c(n2)N(C(=O)Cn2ccnc2)CCC3)cc1 | 593
32 | Cc1ccccc1CC(=O)Nc1ccc2c(c1)Sc1ncccc1C(=O)N2C(C)C | 912
33 | CC1=C(c2ccccc2)S(=O)(=O)N=C1N1CCCN(C(=O)c2ccc(F)c(F)c2)CC1 | 900
34 | COc1ccccc1-c1nnc(N)s1 | 598
35 | CC1CC(=O)Nc2cc(S(=O)(=O)N3CCN(c4ccccn4)CC3)ccc2S1 (stereo unspecified) | 646
36 | COCCn1cc(CCNC(=O)Nc2c(F)cccc2F)c2cccnc21 | 660
37 | Cc1nnc(C2CC3(CCN(Cc4ccccc4)CC3)CN2CCc2ccccc2)o1 (stereo unspecified) | 638
38 | Cc1ccc(NC(=O)Nc2c(-c3ccc(F)cc3)nc3ccccn23)cc1C | 714
39 | COc1ncccc1CNC(=O)c1cccn1C | 704
40 | O=C(Cc1csc2nc(-c3cccc(Br)c3)cn12)NCc1ccc2c(c1)OCO2 | 869
41 | CC1CCN(C(=O)c2cc(S(=O)(=O)N3CCC(C(=O)N4CCCCCC4)CC3)cn2C)CC1 | 839
42 | O=C(C1CCN(c2ncccc2-c2nc(-c3cccc(Cl)c3)no2)CC1)N1CCOCC1 | 982
43 | CC(C)n1c(-c2cccc(C(=O)N3CCC4(CC3)OCCO4)c2)nc2cccnc21 | 693
44 | CCc1nc2c(NC(=O)c3ccc(F)c(Cl)c3)cccn2n1 | 924

Row | Structure (SMILES) | RP-LC retention time [s]
45 | Cn1cc(-c2nc(-c3cccc(Cl)c3)no2)c(=O)c2cc(F)c(N3CCCC3)cc21 | 627
46 | COc1ccc(-n2ccc(=O)c(-c3nc(-c4ccc(OC(C)C)cc4)no3)n2)cc1 | 982
47 | O=C1CC(c2nc(-c3ccccc3F)no2)CN1c1cccc(Cl)c1 (stereo unspecified) | 977
48 | O=C(CN1C(=O)CCS(=O)(=O)c2ccccc21)Nc1ccccc1C(F)(F)F | 746
49 | O=C(NC1CCN(Cc2ccccc2)CC1)c1cc2n(n1)CCCN(Cc1ccccc1)C2=O | 640
50 | CC(C)n1cnc2cc(CNC(=O)C3CCCCC3)ccc21 | 611
51 | Cc1ccc(Cl)c(NC(=O)Cc2csc(C)n2)c1 | 687
52 | COc1cccc(C2Nc3ccccc3NC3=C2C(=O)CC(C)(C)C3)c1O (stereo unspecified) | 686
53 | Cc1oc(-c2ccn[nH]2)cc1S(=O)(=O)Nc1ccc(F)c(Cl)c1 | 852
54 | Cc1ccccc1CNC(=O)CCc1nnc2c3cc(-c4ccc(F)cc4)nn3ccn12 | 811
55 | CCCc1cc(N2CCN(c3ccccn3)CC2)n2nc(C)c(-c3ccccc3)c2n1 | 758
56 | COc1ccc(Cn2ccc3nc(C)c(C(=O)NCCc4c[nH]c5ccccc45)cc3c2=O)cc1 | 807
57 | Cc1ccc(-c2nnc(SCC(=O)N3CCC(C)CC3)o2)cc1 | 986
58 | Cc1nn(-c2ccc(F)cc2)c(C)c1S(=O)(=O)N1CCC(C(=O)Nc2ccccc2F)CC1 | 949
59 | Cc1cccc(C(C)C)c1NC(=O)C1CCN(S(C)(=O)=O)c2ccccc2O1 (stereo unspecified) | 957
60 | CCOc1ccccc1NS(=O)(=O)c1cc(-c2c(C)noc2NC(C)=O)ccc1OC | 798
61 | CCN1CCN(Cc2nc3cc(NC(=O)C(C)C)ccc3n2C(C)C)CC1 | 563
62 | COc1ccc(CCNC(=O)C2=C3CCCN3c3ccc(F)cc3S2(=O)=O)cc1OC | 790
63 | Cn1ccc2cc(S(=O)(=O)N3CCCC(C(=O)N4CCN(c5ccccn5)CC4)C3)ccc21 (stereo unspecified) | 663
64 | O=C(Cc1csc(-c2ccccc2)n1)Nc1nc(-c2ccccc2)cs1 | 1130
65 | Cc1noc(C)c1Cc1ccc(C(=O)N2CCCC2c2nc(CCOCC3CC3)no2)o1 (stereo unspecified) | 825
66 | Cc1ccc(-n2c(=O)c3c(cc(C)n3C)n(CC(=O)Nc3cc(Cl)ccc3C)c2=O)cc1 | 952
